Reference: ChEMBL document CHEMBL4609983, “Pan-specific and partially selective dye-labeled peptidic inhibitors of the polycomb paralog proteins” (Bioorg Med Chem, 2020)
Active and inactive are the calls of the source. Non-standard residues stand in square brackets, D forms with d. Residues, ends and D or L forms follow the SMILES beside them. *: point of attachment. Biotin = O=C1N[C@H]2[C@H](CS[C@H]2CCCCC(=O)*)N1; Lys(Me3) = C[N+](C)(C)CCCC[C@H](N)C(=O)O; Benzoyl(4-Br) = O=C(c1ccc(Br)cc1)*

How the values were obtained:
[1] = molecular target: T1, Chromobox protein homolog 8 (Homo sapiens) (UniProt Q9HC52); experiment: Binding affinity to recombinant human CBX8 by microarray based assay
T1 sequence (whole entry): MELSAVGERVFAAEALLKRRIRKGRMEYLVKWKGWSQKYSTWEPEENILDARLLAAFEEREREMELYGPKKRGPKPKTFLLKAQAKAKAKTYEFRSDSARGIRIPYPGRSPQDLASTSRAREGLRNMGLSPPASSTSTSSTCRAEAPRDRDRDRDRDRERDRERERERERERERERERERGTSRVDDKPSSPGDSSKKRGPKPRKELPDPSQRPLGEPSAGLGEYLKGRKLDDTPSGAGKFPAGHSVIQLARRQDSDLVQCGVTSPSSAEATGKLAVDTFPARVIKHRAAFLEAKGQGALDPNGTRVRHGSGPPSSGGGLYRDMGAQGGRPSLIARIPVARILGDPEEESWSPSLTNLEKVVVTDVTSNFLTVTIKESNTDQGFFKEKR

[2] = molecular target: T2, Chromobox protein homolog 7 (Homo sapiens) (UniProt O95931); experiment: Binding affinity to recombinant human CBX7 by microarray based assay
T2 sequence (whole entry): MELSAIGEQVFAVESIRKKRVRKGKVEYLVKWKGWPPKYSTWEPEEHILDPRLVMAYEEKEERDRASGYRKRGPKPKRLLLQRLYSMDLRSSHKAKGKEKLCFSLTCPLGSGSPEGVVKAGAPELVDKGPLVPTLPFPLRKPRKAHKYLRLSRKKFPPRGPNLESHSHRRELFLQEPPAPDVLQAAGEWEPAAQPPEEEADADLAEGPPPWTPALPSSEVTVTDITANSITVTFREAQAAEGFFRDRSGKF

[3] = molecular target: Mortality factor 4-like protein 1 (Homo sapiens) (UniProt Q9UBU8); experiment: Binding affinity to recombinant human MORF4L1 by microarray based assay
Mortality factor 4-like protein 1 (Homo sapiens), sequence (Q9UBU8 whole entry): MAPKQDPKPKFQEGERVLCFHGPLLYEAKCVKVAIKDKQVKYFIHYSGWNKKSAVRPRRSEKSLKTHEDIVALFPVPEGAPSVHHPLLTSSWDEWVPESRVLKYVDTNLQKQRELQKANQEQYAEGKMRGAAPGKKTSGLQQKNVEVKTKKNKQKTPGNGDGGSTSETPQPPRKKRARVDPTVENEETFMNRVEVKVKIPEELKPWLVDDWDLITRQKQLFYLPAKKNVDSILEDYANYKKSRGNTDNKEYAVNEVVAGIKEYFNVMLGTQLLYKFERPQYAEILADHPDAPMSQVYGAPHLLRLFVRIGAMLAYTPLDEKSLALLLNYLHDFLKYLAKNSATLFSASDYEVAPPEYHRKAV

[4] = molecular target: T3, Chromobox protein homolog 2 (Homo sapiens) (UniProt Q14781); experiment: Binding affinity to recombinant human CBX2 by microarray based assay
T3 sequence (whole entry): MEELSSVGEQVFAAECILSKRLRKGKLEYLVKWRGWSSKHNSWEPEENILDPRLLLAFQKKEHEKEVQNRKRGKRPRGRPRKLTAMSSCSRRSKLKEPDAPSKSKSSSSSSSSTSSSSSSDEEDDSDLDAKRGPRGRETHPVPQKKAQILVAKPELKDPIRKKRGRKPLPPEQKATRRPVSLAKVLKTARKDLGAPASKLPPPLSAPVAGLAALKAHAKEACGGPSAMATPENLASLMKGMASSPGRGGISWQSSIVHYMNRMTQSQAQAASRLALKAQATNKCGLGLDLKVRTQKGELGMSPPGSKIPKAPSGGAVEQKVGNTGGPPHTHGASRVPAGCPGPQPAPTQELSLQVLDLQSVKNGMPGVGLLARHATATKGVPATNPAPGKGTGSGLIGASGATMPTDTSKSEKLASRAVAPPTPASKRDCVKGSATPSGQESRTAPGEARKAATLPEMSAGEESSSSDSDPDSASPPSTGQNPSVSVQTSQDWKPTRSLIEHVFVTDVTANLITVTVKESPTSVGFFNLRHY

[5] = molecular target: T4, Chromodomain Y-like protein (Homo sapiens) (UniProt Q9Y232); experiment: Binding affinity to recombinant human CDYL1B by microarray based assay
T4 sequence (whole entry): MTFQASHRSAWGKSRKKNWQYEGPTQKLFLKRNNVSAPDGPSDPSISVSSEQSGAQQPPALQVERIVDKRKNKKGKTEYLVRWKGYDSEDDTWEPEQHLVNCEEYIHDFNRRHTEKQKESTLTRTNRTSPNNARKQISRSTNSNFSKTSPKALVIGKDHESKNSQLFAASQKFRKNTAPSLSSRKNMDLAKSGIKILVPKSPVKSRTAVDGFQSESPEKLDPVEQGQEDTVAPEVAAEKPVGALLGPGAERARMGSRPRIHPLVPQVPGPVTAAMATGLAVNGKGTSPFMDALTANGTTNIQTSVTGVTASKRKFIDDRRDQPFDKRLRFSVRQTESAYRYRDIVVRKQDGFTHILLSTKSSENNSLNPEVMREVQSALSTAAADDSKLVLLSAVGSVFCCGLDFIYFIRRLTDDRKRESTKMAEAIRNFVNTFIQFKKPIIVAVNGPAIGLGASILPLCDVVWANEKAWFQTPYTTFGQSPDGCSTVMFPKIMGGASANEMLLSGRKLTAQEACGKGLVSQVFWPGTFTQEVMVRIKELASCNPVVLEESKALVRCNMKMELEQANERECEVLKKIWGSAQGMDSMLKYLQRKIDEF

[6] = molecular target: T5, Chromobox protein homolog 6 (Homo sapiens) (UniProt O95503); experiment: Binding affinity to recombinant human CBX6 by microarray based assay
T5 sequence (whole entry): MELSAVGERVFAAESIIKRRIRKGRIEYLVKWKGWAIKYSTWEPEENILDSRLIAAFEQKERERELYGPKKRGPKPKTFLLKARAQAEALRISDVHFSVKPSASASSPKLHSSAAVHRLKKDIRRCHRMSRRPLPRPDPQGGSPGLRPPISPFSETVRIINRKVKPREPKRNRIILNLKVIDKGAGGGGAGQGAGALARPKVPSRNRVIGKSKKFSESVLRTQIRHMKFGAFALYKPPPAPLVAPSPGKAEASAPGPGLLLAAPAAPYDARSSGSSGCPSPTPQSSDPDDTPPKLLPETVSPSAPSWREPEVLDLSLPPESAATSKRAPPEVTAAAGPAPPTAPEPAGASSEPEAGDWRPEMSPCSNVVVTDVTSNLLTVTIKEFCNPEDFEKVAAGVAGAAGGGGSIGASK

[7] = molecular target: T6, Testis-specific chromodomain protein Y 1 (Homo sapiens) (UniProt Q9Y6F8); experiment: Binding affinity to recombinant human CDY1 by microarray based assay
T6 sequence (whole entry): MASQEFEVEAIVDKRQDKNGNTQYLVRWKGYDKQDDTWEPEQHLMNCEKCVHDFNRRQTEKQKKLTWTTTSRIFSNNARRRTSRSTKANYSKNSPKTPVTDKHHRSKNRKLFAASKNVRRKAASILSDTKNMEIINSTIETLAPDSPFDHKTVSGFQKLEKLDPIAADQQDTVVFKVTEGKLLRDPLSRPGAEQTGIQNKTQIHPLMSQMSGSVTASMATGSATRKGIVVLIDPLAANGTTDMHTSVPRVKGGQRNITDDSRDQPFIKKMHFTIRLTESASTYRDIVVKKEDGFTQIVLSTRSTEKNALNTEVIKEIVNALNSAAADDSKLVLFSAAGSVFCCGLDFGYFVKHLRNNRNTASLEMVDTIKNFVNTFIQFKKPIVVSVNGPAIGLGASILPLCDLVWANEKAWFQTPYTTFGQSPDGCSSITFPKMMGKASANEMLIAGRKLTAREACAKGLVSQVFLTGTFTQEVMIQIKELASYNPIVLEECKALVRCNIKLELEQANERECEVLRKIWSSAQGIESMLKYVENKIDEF

Measured: Activity

CC(C)C[C@H](NC(=O)[C@H](CO)NC(=O)[C@H](CCCC[N+](C)(C)C)NC(=O)[C@H](Cc1ccc(O)cc1)NC(=O)[C@H](C)NC(=O)[C@H](Cc1ccccc1)NC(=O)c1ccc(Br)cc1)C(=O)N[C@@H](CCCCNC(=O)CCCC[C@@H]1SC[C@@H]2NC(=O)N[C@@H]21)C(N)=O ({Benzoyl(4-Br)}-FAY[Lys(Me3)]SLK(Biotin)-NH2)
active: [1] | [2] | [3] | [4] | [5] | [6] | [7]
